Test results published in patent US20240197814A1, “MATERIALS AND METHODS FOR THE PREVENTION AND TREATMENT OF VIRAL DISEASES” (priority 2021, published 2024).
Where two headings read alike, the source gives them in different places.

How the values were obtained:
Type in all cases: cell-based
[1] = test system: HIV-1 IIIB; test: In vitro HIV-1 prevention model, TZM-bl-FcRI cells, β-galactosidase; conditions: TZM-bl-FcRI cells, 0.1, 0.25 and 1 μM peptide, 48 h
Experimental: Sixty-seven (67) compounds from a library of peptides included in TABLE 1 were evaluated for inhibition of HIV-1 IIIB in TZM-bl-FcRI cells. The compounds were tested at three (3) concentrations with six (6) replicates each for efficacy and toxicity for 48 hours in this model. Virus was diluted 1:128, based on a previous titration. The test article was dissolved in DMSO to generate a stock solution, and dosing solutions were prepared by dilution of the stock solution using the appropriate volume of PBS. These dosing solutions were mixed with predetermined volumes of the virus suspension, based on the titration data, and were incubated for 30 min at 37° C./5% CO2.
Following incubation, the virus/compound mixture was added to pre-plated TZM-bl-FcRI cells and the necessary volume of assay media (based on the titration). The culture was incubated for six hours under the above conditions and then washed to remove residual virus and compound. The cultures were incubated for an additional 48 hours at 37° C./5% CO2 before measuring β-galactosidase in the wells using a chemiluminescent endpoint.
The study was carried out using a 96-well format. The first row of 12 wells was used as a negative control (cells with no virus or test compound added). […] Peptide 346-001 served as a positive control on each plate, such that three other test compounds could be evaluated per plate. […]

[2] = test system: SARS-CoV-2 (2019-nCoV/USA-WA1/2020 strain); conditions: 60% confluent VERO E6, 48 h
[3] = test system: SARS-CoV-2 (2019-nCoV/USA-WA1/2020 strain); conditions: 80% confluent VERO E6, 48 h
[4] = test system: SARS-CoV-2 (2019-nCoV/USA-WA1/2020 strain); conditions: VERO E6, 48 h

“Ac-SWLRDIWDWICEVLSDFKC(succinimido-propionylaminoethyl-mPEG2K)-NH2 (Ac-SWLRDIWDWICEVLSDFKC(succinimido‑propionylaminoethyl‑mPEG2K)-NH2) [Peptide 346-064]” was tested, and the “potency against HIV-1 compared with peptide 346-001” value [1] was “increase in potency”.

With GSWLRDIWDWICEVLSDFK [Peptide 346-003] the “dose response curve shape” value [2] was “unexpected and unusual dose response curve shape”.

SIWRDWVDLICEFLSDWK [Peptide 346-007] was tested, and the dose-response relationship [3] was “steep dose response relationship” and the “potency relative to the other peptides tested” value [3] was “ca. double”.

With “SWLRDIWDWICEVLSDFK [Peptide 346-001, virucidal amphipathic α-helical peptide derived from the hepatitis C virus (HCV) NS5A membrane anchor domain]” the “reduction on viral copy numbers” value ([4]; 50 μM dosing concentration) was > 5 orders of magnitude, the “reduction on viral copy numbers” value ([4]; 125 μM dosing concentration) was > 7 orders of magnitude and the “potency against SARS-CoV-2 infection” value [4] was “high potency”.
